Measurements: the kinase profiling compilation of Christmann-Franck et al. (2016)

What was measured:
Assay in all cases: KINOMEscan competition binding
STK32C (human) = STK32C (human) (UniProt Q86UX6); conditions: compound 1.0 µM
ERBB3 (human) = ERBB3 (human) (UniProt P21860); conditions: compound 1.0 µM
ERBB4 (human) = ERBB4 (human) (UniProt Q15303); conditions: compound 1.0 µM
MARK1 (human) = MARK1 (human) (UniProt Q9P0L2); conditions: compound 1.0 µM
MAP3K2 (human) = MAP3K2 (human) (UniProt Q9Y2U5); conditions: compound 1.0 µM
[1] = test system: FLT3 (human), P36888 [R834Q]; conditions: compound 1.0 µM
PRKCQ (human) = PRKCQ (human) (UniProt Q04759); conditions: compound 1.0 µM
RPS6KA5 KD1 (human) = RPS6KA5 KD1 (human) (UniProt O75582); conditions: compound 1.0 µM
CSNK1G3 (human) = CSNK1G3 (human) (UniProt Q9Y6M4); conditions: compound 1.0 µM
[2] = test system: RET (human), P07949 [V804M]; conditions: compound 1.0 µM
MAPK11 (human) = MAPK11 (human) (UniProt Q15759); conditions: compound 1.0 µM
PIP5K1A (human) = PIP5K1A (human) (UniProt Q99755); conditions: compound 1.0 µM
[3] = test system: MET (human), P08581 [M1250T]; conditions: compound 1.0 µM
AURKC (human) = AURKC (human) (UniProt Q9UQB9); conditions: compound 1.0 µM
CDC42BPB (human) = CDC42BPB (human) (UniProt Q9Y5S2); conditions: compound 1.0 µM
[4] = test system: ABL1 (human), P00519 [E255K]; conditions: compound 1.0 µM
RIOK2 (human) = RIOK2 (human) (UniProt Q9BVS4); conditions: for kinase still bound, per cent of control: compound 1.0 µM
PRKCE (human) = PRKCE (human) (UniProt Q02156); conditions: compound 1.0 µM
MAP3K13 (human) = MAP3K13 (human) (UniProt O43283); conditions: compound 1.0 µM
[5] = test system: EGFR (human), P00533 [L861Q]; conditions: compound 1.0 µM
STK3 (human) = STK3 (human) (UniProt Q13188); conditions: compound 1.0 µM
RPS6KA4 KD1 (human) = RPS6KA4 KD1 (human) (UniProt O75676); conditions: compound 1.0 µM
NEK3 (human) = NEK3 (human) (UniProt P51956); conditions: compound 1.0 µM
ACVR2B (human) = ACVR2B (human) (UniProt Q13705); conditions: compound 1.0 µM
GSK3A (human) = GSK3A (human) (UniProt P49840); conditions: compound 1.0 µM
[6] = test system: EGFR (human), P00533 [A750P; 747-749 del]; conditions: compound 1.0 µM
PKMYT1 (human) = PKMYT1 (human) (UniProt Q99640); conditions: compound 1.0 µM
FYN (human) = FYN (human) (UniProt P06241); conditions: compound 1.0 µM
PKN1 (human) = PKN1 (human) (UniProt Q16512); conditions: compound 1.0 µM
CAMK2G (human) = CAMK2G (human) (UniProt Q13555); conditions: compound 1.0 µM
CAMKK2 (human) = CAMKK2 (human) (UniProt Q96RR4); conditions: compound 1.0 µM
MAP2K1 (human) = MAP2K1 (human) (UniProt Q02750); conditions: compound 1.0 µM
SIK3 (human) = SIK3 (human) (UniProt Q9Y2K2); conditions: compound 1.0 µM
CSNK1G1 (human) = CSNK1G1 (human) (UniProt Q9HCP0); conditions: compound 1.0 µM
DYRK2 (human) = DYRK2 (human) (UniProt Q92630); conditions: compound 1.0 µM
ANKK1 (human) = ANKK1 (human) (UniProt Q8NFD2); conditions: compound 1.0 µM
MYLK (human) = MYLK (human) (UniProt Q15746); conditions: compound 1.0 µM
[7] = test system: PIK3CA (human), P42336 [E542K]; conditions: compound 1.0 µM
SRPK2 (human) = SRPK2 (human) (UniProt P78362); conditions: compound 1.0 µM
WEE1 (human) = WEE1 (human) (UniProt P30291); conditions: compound 1.0 µM
PRKCI (human) = PRKCI (human) (UniProt P41743); conditions: compound 1.0 µM
PIM2 (human) = PIM2 (human) (UniProt Q9P1W9); conditions: compound 1.0 µM
Sequence of PIM2 (human) (Q9P1W9 whole entry, looked up): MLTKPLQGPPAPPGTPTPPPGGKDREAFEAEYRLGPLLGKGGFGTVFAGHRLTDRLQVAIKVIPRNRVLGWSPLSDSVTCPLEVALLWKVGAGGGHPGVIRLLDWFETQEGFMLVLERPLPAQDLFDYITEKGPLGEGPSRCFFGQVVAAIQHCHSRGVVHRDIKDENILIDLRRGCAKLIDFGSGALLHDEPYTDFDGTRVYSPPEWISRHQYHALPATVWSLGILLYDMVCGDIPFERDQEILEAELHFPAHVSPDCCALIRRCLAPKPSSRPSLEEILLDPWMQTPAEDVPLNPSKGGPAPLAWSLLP

Sequence of MAP3K13 (human) (O43283 whole entry, looked up): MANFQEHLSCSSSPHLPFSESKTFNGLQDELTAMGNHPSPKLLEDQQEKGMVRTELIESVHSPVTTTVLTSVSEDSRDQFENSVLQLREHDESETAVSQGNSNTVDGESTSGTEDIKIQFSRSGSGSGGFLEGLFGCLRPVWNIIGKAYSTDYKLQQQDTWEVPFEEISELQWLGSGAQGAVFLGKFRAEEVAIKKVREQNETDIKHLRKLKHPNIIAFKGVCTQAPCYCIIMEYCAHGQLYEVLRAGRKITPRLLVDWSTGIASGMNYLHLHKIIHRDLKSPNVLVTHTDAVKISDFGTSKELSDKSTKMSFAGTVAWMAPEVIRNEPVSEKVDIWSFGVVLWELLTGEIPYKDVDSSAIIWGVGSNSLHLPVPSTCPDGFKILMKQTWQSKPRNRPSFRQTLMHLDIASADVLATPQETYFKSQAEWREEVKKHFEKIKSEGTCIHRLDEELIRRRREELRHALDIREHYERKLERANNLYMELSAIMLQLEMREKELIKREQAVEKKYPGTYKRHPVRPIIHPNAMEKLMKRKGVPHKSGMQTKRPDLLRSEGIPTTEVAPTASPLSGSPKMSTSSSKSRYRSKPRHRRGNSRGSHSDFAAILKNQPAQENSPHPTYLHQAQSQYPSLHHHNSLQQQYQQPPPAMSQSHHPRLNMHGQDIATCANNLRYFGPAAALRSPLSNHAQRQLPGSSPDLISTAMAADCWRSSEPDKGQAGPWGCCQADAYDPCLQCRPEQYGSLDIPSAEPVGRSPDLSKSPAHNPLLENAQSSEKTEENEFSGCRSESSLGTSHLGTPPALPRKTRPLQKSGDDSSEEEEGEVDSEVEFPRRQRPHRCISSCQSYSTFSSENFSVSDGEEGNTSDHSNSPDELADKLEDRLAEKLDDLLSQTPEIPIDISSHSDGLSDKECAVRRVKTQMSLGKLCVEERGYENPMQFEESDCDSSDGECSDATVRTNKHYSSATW
Sequence of MAP2K1 (human) (Q02750 whole entry, looked up): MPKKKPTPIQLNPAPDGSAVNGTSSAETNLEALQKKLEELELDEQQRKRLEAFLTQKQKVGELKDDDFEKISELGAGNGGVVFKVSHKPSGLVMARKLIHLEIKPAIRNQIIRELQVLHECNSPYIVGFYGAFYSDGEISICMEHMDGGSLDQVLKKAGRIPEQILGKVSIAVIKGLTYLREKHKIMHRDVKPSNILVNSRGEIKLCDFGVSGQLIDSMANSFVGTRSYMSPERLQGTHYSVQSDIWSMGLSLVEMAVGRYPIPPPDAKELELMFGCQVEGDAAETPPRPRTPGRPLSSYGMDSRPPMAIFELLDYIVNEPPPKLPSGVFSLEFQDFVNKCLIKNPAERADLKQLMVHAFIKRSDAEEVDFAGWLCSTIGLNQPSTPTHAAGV
Sequence of MAPK11 (human) (Q15759 whole entry, looked up): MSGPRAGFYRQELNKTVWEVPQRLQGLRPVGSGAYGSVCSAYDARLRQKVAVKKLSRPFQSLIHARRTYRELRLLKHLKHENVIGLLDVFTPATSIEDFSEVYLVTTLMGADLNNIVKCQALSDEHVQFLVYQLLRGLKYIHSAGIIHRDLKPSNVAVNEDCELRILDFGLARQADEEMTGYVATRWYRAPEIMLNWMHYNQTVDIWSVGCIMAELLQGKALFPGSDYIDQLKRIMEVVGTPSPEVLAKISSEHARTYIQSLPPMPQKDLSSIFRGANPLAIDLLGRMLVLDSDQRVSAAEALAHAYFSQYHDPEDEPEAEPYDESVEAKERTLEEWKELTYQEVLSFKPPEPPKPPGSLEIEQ
Sequence of RET (human), P07949 [V804M] (P07949 whole entry V804M, looked up): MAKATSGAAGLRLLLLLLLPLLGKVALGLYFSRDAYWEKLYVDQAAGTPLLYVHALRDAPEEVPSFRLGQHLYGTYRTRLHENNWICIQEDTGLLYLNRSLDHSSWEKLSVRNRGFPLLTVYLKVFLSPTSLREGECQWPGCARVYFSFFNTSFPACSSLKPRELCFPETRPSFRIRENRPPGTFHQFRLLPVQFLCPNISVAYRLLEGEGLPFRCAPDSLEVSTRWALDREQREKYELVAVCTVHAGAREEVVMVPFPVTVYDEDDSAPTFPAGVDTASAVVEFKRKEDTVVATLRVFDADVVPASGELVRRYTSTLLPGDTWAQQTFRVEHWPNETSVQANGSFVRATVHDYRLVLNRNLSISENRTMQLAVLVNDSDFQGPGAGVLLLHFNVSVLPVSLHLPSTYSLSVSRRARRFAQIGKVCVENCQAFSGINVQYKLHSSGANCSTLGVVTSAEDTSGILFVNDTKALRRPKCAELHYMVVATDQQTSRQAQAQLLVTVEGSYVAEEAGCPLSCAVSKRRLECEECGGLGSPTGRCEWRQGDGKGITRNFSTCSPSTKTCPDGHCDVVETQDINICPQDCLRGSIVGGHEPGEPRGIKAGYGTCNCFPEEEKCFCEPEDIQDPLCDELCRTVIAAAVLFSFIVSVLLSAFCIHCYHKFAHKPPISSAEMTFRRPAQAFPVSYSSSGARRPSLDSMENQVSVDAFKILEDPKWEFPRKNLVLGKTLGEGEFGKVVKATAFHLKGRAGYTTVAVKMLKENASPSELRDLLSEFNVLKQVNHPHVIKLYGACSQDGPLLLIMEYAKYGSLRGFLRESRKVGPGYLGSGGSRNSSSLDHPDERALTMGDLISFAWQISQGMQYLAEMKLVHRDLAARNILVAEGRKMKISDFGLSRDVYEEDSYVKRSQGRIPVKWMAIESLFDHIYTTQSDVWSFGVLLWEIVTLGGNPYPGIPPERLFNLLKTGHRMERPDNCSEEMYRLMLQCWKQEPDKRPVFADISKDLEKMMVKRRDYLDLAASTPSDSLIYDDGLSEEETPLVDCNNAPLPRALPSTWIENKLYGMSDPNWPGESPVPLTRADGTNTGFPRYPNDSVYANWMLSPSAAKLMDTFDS
Sequence of PRKCE (human) (Q02156 whole entry, looked up): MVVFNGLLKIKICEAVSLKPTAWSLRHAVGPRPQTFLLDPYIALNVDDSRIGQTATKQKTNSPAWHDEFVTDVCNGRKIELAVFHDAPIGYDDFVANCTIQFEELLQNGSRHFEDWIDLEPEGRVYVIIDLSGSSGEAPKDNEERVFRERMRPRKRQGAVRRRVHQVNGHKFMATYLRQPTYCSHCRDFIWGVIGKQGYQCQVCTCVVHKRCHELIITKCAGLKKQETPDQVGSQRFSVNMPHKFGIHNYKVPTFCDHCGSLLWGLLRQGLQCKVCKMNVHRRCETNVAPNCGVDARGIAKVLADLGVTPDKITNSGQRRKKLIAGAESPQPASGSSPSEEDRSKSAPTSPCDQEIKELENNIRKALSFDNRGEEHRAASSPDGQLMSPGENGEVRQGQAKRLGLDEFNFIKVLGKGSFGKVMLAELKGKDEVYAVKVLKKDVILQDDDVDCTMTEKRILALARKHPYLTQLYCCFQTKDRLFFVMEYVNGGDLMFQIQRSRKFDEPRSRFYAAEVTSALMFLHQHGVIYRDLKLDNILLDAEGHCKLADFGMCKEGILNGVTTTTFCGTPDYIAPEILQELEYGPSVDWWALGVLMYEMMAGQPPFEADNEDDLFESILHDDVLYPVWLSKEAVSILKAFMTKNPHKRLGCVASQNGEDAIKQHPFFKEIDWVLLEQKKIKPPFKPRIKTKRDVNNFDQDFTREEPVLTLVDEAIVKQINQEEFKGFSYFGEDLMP
Sequence of SRPK2 (human) (P78362 whole entry, looked up): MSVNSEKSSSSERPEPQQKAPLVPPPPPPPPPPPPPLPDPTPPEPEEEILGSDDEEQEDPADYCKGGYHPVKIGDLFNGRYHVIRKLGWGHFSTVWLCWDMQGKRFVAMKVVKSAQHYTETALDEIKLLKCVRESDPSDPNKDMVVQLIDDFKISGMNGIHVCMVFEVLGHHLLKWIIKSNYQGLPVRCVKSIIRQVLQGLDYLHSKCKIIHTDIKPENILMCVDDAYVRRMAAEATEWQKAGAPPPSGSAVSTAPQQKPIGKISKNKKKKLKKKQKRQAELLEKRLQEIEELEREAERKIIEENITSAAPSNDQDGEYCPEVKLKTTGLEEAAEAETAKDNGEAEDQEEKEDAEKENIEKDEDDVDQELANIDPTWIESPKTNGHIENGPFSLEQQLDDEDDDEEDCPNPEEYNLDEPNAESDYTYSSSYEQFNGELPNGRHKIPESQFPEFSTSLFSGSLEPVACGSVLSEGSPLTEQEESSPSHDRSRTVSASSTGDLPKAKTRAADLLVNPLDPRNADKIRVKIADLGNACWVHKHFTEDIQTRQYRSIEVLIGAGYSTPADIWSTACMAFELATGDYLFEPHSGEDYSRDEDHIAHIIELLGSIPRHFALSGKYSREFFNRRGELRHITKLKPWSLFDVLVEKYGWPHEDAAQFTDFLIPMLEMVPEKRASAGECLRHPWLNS
Sequence of CSNK1G1 (human) (Q9HCP0 whole entry, looked up): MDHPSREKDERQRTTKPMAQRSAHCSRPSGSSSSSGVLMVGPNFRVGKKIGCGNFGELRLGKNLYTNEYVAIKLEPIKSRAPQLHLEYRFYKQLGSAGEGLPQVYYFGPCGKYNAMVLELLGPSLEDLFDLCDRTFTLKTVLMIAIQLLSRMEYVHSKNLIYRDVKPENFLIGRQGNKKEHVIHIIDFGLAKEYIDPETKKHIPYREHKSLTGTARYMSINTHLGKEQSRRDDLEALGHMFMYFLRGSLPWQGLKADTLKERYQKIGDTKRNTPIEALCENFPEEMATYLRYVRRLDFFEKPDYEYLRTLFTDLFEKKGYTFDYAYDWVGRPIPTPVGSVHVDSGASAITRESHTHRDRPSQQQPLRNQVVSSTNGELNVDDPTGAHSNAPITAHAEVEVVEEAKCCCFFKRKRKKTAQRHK

Compound: CN(C)C/C=C/C(=O)Nc1cccc(C(=O)Nc2ccc(Nc3nccc(-c4c(-c5ccccc5)nn5ccccc45)n3)cc2)c1
- kinase still bound, per cent of control (STK32C (human)): 99%
- kinase still bound, per cent of control (ERBB3 (human)): 43%
- kinase still bound, per cent of control (ERBB4 (human)): 5.4%
- kinase still bound, per cent of control (MARK1 (human)): 100%
- kinase still bound, per cent of control (MAP3K2 (human)): 52%
- kinase still bound, per cent of control [1]: 68%
- kinase still bound, per cent of control (PRKCQ (human)): 28%
- kinase still bound, per cent of control (RPS6KA5 KD1 (human)): 100%
- kinase still bound, per cent of control (CSNK1G3 (human)): 1.2%
- kinase still bound, per cent of control [2]: 100%
- kinase still bound, per cent of control (MAPK11 (human)): 6.6%
- kinase still bound, per cent of control (PIP5K1A (human)): 67%
- kinase still bound, per cent of control [3]: 70%
- kinase still bound, per cent of control (AURKC (human)): 84%
- kinase still bound, per cent of control (CDC42BPB (human)): 16%
- kinase still bound, per cent of control [4]: 12%
- kinase still bound, per cent of control (RIOK2 (human)): 27%
- kinase still bound, per cent of control (PRKCE (human)): 93%
- kinase still bound, per cent of control (MAP3K13 (human)): 100%
- kinase still bound, per cent of control [5]: 0.75%
- kinase still bound, per cent of control (STK3 (human)): 99%
- kinase still bound, per cent of control (RPS6KA4 KD1 (human)): 88%
- kinase still bound, per cent of control (NEK3 (human)): 99%
- kinase still bound, per cent of control (ACVR2B (human)): 9.6%
- kinase still bound, per cent of control (GSK3A (human)): 38%
- kinase still bound, per cent of control [6]: 1.6%
- kinase still bound, per cent of control (PKMYT1 (human)): 100%
- kinase still bound, per cent of control (FYN (human)): 49%
- kinase still bound, per cent of control (PKN1 (human)): 100%
- kinase still bound, per cent of control (CAMK2G (human)): 100%
- kinase still bound, per cent of control (CAMKK2 (human)): 100%
- kinase still bound, per cent of control (MAP2K1 (human)): 100%
- kinase still bound, per cent of control (SIK3 (human)): 100%
- kinase still bound, per cent of control (CSNK1G1 (human)): 39%
- kinase still bound, per cent of control (DYRK2 (human)): 100%
- kinase still bound, per cent of control (ANKK1 (human)): 73%
- kinase still bound, per cent of control (MYLK (human)): 77%
- kinase still bound, per cent of control [7]: 91%
- kinase still bound, per cent of control (SRPK2 (human)): 85%
- kinase still bound, per cent of control (WEE1 (human)): 100%
- kinase still bound, per cent of control (PRKCI (human)): 46%
- kinase still bound, per cent of control (PIM2 (human)): 100%

Compound: CN(C)C/C=C/C(=O)Nc1cccc(C(=O)Nc2ccc(Nc3nccc(/C(C#N)=C4\Nc5ccccc5S4)n3)cc2)c1
- kinase still bound, per cent of control (STK32C (human)): 100%
- kinase still bound, per cent of control (ERBB3 (human)): 74%
- kinase still bound, per cent of control (ERBB4 (human)): 100%
- kinase still bound, per cent of control (MARK1 (human)): 100%
- kinase still bound, per cent of control (MAP3K2 (human)): 100%
- kinase still bound, per cent of control [1]: 100%
- kinase still bound, per cent of control (PRKCQ (human)): 100%
- kinase still bound, per cent of control (RPS6KA5 KD1 (human)): 100%
- kinase still bound, per cent of control (CSNK1G3 (human)): 37%
- kinase still bound, per cent of control [2]: 100%
- kinase still bound, per cent of control (MAPK11 (human)): 100%
- kinase still bound, per cent of control (PIP5K1A (human)): 39%
- kinase still bound, per cent of control [3]: 79%
- kinase still bound, per cent of control (AURKC (human)): 76%
- kinase still bound, per cent of control (CDC42BPB (human)): 100%
- kinase still bound, per cent of control [4]: 100%
- kinase still bound, per cent of control (RIOK2 (human)): 18%
- kinase still bound, per cent of control (PRKCE (human)): 100%
- kinase still bound, per cent of control (MAP3K13 (human)): 100%
- kinase still bound, per cent of control [5]: 81%
- kinase still bound, per cent of control (STK3 (human)): 91%
- kinase still bound, per cent of control (RPS6KA4 KD1 (human)): 89%
- kinase still bound, per cent of control (NEK3 (human)): 100%
- kinase still bound, per cent of control (ACVR2B (human)): 100%
- kinase still bound, per cent of control (GSK3A (human)): 59%
- kinase still bound, per cent of control [6]: 94%
- kinase still bound, per cent of control (PKMYT1 (human)): 100%
- kinase still bound, per cent of control (FYN (human)): 95%
- kinase still bound, per cent of control (PKN1 (human)): 92%
- kinase still bound, per cent of control (CAMK2G (human)): 100%
- kinase still bound, per cent of control (CAMKK2 (human)): 100%
- kinase still bound, per cent of control (MAP2K1 (human)): 100%
- kinase still bound, per cent of control (SIK3 (human)): 100%
- kinase still bound, per cent of control (CSNK1G1 (human)): 92%
- kinase still bound, per cent of control (DYRK2 (human)): 15%
- kinase still bound, per cent of control (ANKK1 (human)): 100%
- kinase still bound, per cent of control (MYLK (human)): 100%
- kinase still bound, per cent of control [7]: 100%
- kinase still bound, per cent of control (SRPK2 (human)): 100%
- kinase still bound, per cent of control (WEE1 (human)): 100%
- kinase still bound, per cent of control (PRKCI (human)): 100%
- kinase still bound, per cent of control (PIM2 (human)): 51%

Compound: Cc1cc(NC(=O)c2cccc(NC(=O)/C=C/CN(C)C)c2)ccc1Nc1nccc(-c2cccnc2)n1
- kinase still bound, per cent of control (STK32C (human)): 95%
- kinase still bound, per cent of control (ERBB3 (human)): 93%
- kinase still bound, per cent of control (ERBB4 (human)): 96%
- kinase still bound, per cent of control (MARK1 (human)): 100%
- kinase still bound, per cent of control (MAP3K2 (human)): 100%
- kinase still bound, per cent of control [1]: 100%
- kinase still bound, per cent of control (PRKCQ (human)): 100%
- kinase still bound, per cent of control (RPS6KA5 KD1 (human)): 100%
- kinase still bound, per cent of control (CSNK1G3 (human)): 100%
- kinase still bound, per cent of control [2]: 100%
- kinase still bound, per cent of control (MAPK11 (human)): 20%
- kinase still bound, per cent of control (PIP5K1A (human)): 75%
- kinase still bound, per cent of control [3]: 6.2%
- kinase still bound, per cent of control (AURKC (human)): 95%
- kinase still bound, per cent of control (CDC42BPB (human)): 68%
- kinase still bound, per cent of control [4]: 100%
- Kd (RIOK2 (human)): 120 nM
- kinase still bound, per cent of control (RIOK2 (human)): 10%
- kinase still bound, per cent of control (PRKCE (human)): 81%
- kinase still bound, per cent of control (MAP3K13 (human)): 93%
- kinase still bound, per cent of control [5]: 100%
- kinase still bound, per cent of control (STK3 (human)): 48%
- kinase still bound, per cent of control (RPS6KA4 KD1 (human)): 79%
- kinase still bound, per cent of control (NEK3 (human)): 73%
- kinase still bound, per cent of control (ACVR2B (human)): 100%
- kinase still bound, per cent of control (GSK3A (human)): 92%
- kinase still bound, per cent of control [6]: 84%
- kinase still bound, per cent of control (PKMYT1 (human)): 69%
- kinase still bound, per cent of control (FYN (human)): 78%
- kinase still bound, per cent of control (PKN1 (human)): 94%
- kinase still bound, per cent of control (CAMK2G (human)): 100%
- kinase still bound, per cent of control (CAMKK2 (human)): 93%
- kinase still bound, per cent of control (MAP2K1 (human)): 94%
- kinase still bound, per cent of control (SIK3 (human)): 100%
- kinase still bound, per cent of control (CSNK1G1 (human)): 100%
- kinase still bound, per cent of control (DYRK2 (human)): 20%
- kinase still bound, per cent of control (ANKK1 (human)): 75%
- kinase still bound, per cent of control (MYLK (human)): 93%
- kinase still bound, per cent of control [7]: 100%
- kinase still bound, per cent of control (SRPK2 (human)): 100%
- kinase still bound, per cent of control (WEE1 (human)): 100%
- kinase still bound, per cent of control (PRKCI (human)): 93%
- kinase still bound, per cent of control (PIM2 (human)): 100%
